In US20160082087A1, “WHITENING PROMOTING AGENT OR ATOPIC DERMATITIS AMELIORATING AGENT” (NITTA GELATIN INC., priority 2013, published 2016):
Marks after values point to notes of the source that are not given here. Square brackets hold non-standard residues; d marks the D form. Ends that are not written are not given here. Hyp = O=C(O)[C@@H]1C[C@@H](O)CN1

Columns and labels:
Format in all cases: cell-based, human
keratin 10 (K10) = test: K10 expression promotion test (real time PCR); settings: 0.5 mM, 24 hours, NHEK (NB), control 1.00, GAPDH corrected
Description: (§1) A normal human epidermal keratinocyte NHEK (NB) (available from KURABO INDUSTRIES LTD.) was used. The cells were precultured in HuMedia-KG2 (available from KURABO INDUSTRIES LTD.), and 1.5×10^4 cells/mL×5 mL (7.5×10^4 cells/dish) were cultured in a 60 mm laboratory dish for two days. After confirming that the cells were subconfluent, the medium was replaced by 5 mL of HuMedia-KB2 (available from KURABO INDUSTRIES LTD.). Samples were added in respective concentrations, and allowed to react for 24 hours (ET-1, K10), 48 hours (TGM1, ivl, HAS2), and 72 hours (FLG). Total RNA was extracted from the cells, reverse transcribed, and subjected to real time PCR. In the real time PCR, as target genes, endoserine-1 (ET-1; Hs00174961_m1), keratin 10 (K10; Hs01043114_g1), transglutaminase 1 (TGM1; Hs01070310_m1), involucrin (ivl; Hs00846307_s1), filaggrin (FLG; Hs00856927_g1) and hyaluronic acid synthase 2 (HAS2; Hs00193435_m1) were measured. GAPDH was used as a correction gene. Calculation was conducted by using a calibration curve method, and FAM pigment of TaqMan Gene Expression was used in primers and probes.
(§2) For each peptide or the like of Examples 1 to 13 and Comparative Examples 1 to 27, RNA expression amounts of endoserine-1 (ET-1), keratin 10 (K10), transglutaminase 1 (TGM1), involucrin (ivl), filaggrin (FLG) and hyaluronic acid synthase 2 (HAS2) were measured. Values in the tables are each average value±standard deviation, and *, ** and *** denote that they are significant with P<0.05, P<0.01, and P<0.001, respectively with respect to the control in Paired-t-test.

involucrin (ivl) = test: ivl expression promotion test (real time PCR); settings: 0.5 mM, 48 hours, NHEK (NB), control 1.00, GAPDH corrected
Description: as §1, §2

endoserine-1 (ET-1) = test: ET-1 expression suppression test (real time PCR); settings: 0.5 mM, 24 hours, NHEK (NB), control 1.00, GAPDH corrected
Description: as §1, §2

[1] = tested on: transglutaminase 1 (TGM1); test: TGM1 expression promotion test (real time PCR); settings: 0.5 mM, 48 hours, NHEK (NB), control 1.00, GAPDH corrected
Description: as §1, §2

filaggrin (FLG) = test: FLG expression promotion test (real time PCR); settings: 0.5 mM, 72 hours, NHEK (NB), control 1.00, GAPDH corrected
Description: as §1, §2

[2] = tested on: hyaluronic acid synthase 2 (HAS2); test: HAS2 expression promotion test (real time PCR); settings: 0.5 mM, 48 hours, NHEK (NB), control 1.00, GAPDH corrected
Description: as §1, §2

Molecule | Keratin 10 RNA expression amount (keratin 10 (K10)) | Involucrin RNA expression amount (involucrin (ivl)) | Endoserine-I RNA expression amount (endoserine-1 (ET-1)) | Transglutaminase 1 RNA expression amount [1] | Filaggrin RNA expression amount (filaggrin (FLG)) | Hyaluronic acid synthase 2 RNA expression amount [2]
O=C(O)[C@@H]1CCCN1 [Comparative Example 7, L-proline] | 0.73 ± 0.03** | 0.78 ± 0.01** | 1.89 ± 0.06** | 1.02 ± 0.13 | 0.85 ± 0.18 | 0.84 ± 0.47
O=C(O)[C@@H]1C[C@@H](O)CN1 [Comparative Example 8, L-hydroxyproline] | 0.64 ± 0.02** | 0.94 ± 0.04 | 1.52 ± 0.02*** | 0.94 ± 0.10 | 0.89 ± 0.09 | 0.70 ± 0.29
NCC(=O)O [Comparative Example 9, L-glycine] | 0.81 ± 0.05 | 0.71 ± 0.03** | 1.01 ± 0.05** | 0.75 ± 0.01** | 0.87 ± 0.05 | 0.61 ± 0.40**
CC(C)C[C@H](N)C(=O)O [Comparative Example 10, L-leucine] | 0.62 ± 0.01** | 0.84 ± 0.03 | 1.58 ± 0.05** | 0.63 ± 0.07* | 0.89 ± 0.08 | 0.76 ± 0.07*
N[C@@H](CCC(=O)O)C(=O)O [Comparative Example 11, L-glutamic acid] | 0.65 ± 0.01** | 0.85 ± 0.11 | 1.00 ± 0.02** | 0.40 ± 0.01** | 0.77 ± 0.04* | 1.06 ± 0.24
C[C@H](N)C(=O)O [Comparative Example 12, L-alanine] | 0.82 ± 0.02* | 0.64 ± 0.15** | 1.58 ± 0.05** | 0.95 ± 0.04 | 0.69 ± 0.02** | 0.89 ± 0.57
N[C@@H](CO)C(=O)O [Comparative Example 13, L-serine] | 0.69 ± 0.03** | 0.98 ± 0.05 | 1.64 ± 0.07** | 0.85 ± 0.02 | 0.85 ± 0.08 | 0.81 ± 0.50
N[C@@H](Cc1ccccc1)C(=O)O [Comparative Example 14, L-phenylalanine] | 0.78 ± 0.07 | 0.87 ± 0.04 | 1.05 ± 0.05 | 0.72 ± 0.05** | 0.59 ± 0.05** | 0.89 ± 0.84
(Pro-Hyp-Gly)2 [Example 2] | 5.69 ± 0.28*** | 4.35 ± 0.04*** | 0.43 ± 0.03*** | 7.21 ± 0.03** | 9.58 ± 1.02*** | 3.11 ± 0.89**
(Pro-Hyp-Gly)5 [Example 1] | 6.40 ± 0.06 | 7.96 ± 0.60** | 0.32 ± 0.00* | 13.50 ± 2.69** | 11.23 ± 1.56*** | 3.45 ± 1.02**
Ala-Hyp [Comparative Example 2] | 1.00 ± 0.06 | 1.01 ± 0.00 | 1.23 ± 0.03* | 0.48 ± 0.02*** | 0.98 ± 0.95 | 0.99 ± 0.66
Ala-[Hyp]-Gly [Example 7] | 5.06 ± 0.37*** | 1.36 ± 0.07* | 0.52 ± 0.01 | 2.00 ± 0.02*** | 3.09 ± 0.23** | 2.21 ± 0.67**
Glu-Hyp [Example 6] | 3.48 ± 0.05*** | 1.95 ± 0.08** | 0.65 ± 0.02 | 2.12 ± 0.01*** | 3.26 ± 1.61** | 2.35 ± 0.85**
Glu-[Hyp]-Gly [Example 8] | 2.39 ± 0.02* | 1.89 ± 0.03* | 0.71 ± 0.03 | 1.69 ± 0.01*** | 2.92 ± 0.89** | 2.56 ± 0.45**
Gly-Pro [Example 3] | 2.56 ± 0.22*** | 2.18 ± 0.00*** | 0.36 ± 0.12** | 2.15 ± 0.02** | 7.21 ± 0.95*** | 3.08 ± 0.99**
Gly-Pro-[Hyp] [Comparative Example 1] | 0.94 ± 0.10 | 0.95 ± 0.08 | 1.05 ± 0.11 | 0.98 ± 0.05 | 1.08 ± 0.21 | 0.98 ± 0.45
Hyp-Gly [Example 9] | 1.99 ± 0.13* | 2.04 ± 0.02* | 0.55 ± 0.09** | 1.99 ± 0.06* | 2.98 ± 0.58** | 2.18 ± 0.67**
Leu-Hyp [Comparative Example 3] | 1.04 ± 0.06 | 0.89 ± 0.09* | 1.08 ± 0.00 | 0.58 ± 0.01*** | 0.69 ± 0.58 | 0.87 ± 0.63
Phe-Hyp [Example 11] | 2.22 ± 0.01*** | 1.85 ± 0.00*** | 0.97 ± 0.16 | 1.46 ± 0.02* | 1.95 ± 0.19* | 1.63 ± 0.49*
Pro-Ala [Comparative Example 6] | 0.70 ± 0.04 | 0.81 ± 0.06** | 1.09 ± 0.01** | 0.94 ± 0.13 | 0.63 ± 0.08** | 0.99 ± 0.68
